In ChEMBL document CHEMBL1150177, “Antineoplastic agents, 178. Isolation and structure of lychnostatins 1 and 2 from the South American Lychnophora antillana” (1990):
≈ marks a conversion by molar mass, not a printed value.

Tested on: P388
Assay: Cytotoxicity against mouse P388 cells
Format: functional
Conditions: read-out: ED50 (the source's name)

Structure (SMILES) | EC50
C=C(C)C(=O)O[C@H]1C[C@@](C)(OC(C)=O)C(=O)CC[C@H](C)[C@H](O)[C@H]2OC(=O)C(=C)[C@@H]21 [LYCHNOSTATIN 1] | 2 µg/mL (≈ 4.9 µM)
C=C(C)C(=O)O[C@H]1C[C@@](C)(OC(C)=O)C(=O)CC[C@H](C)C[C@H]2OC(=O)C(=C)[C@H]12 [LYCHNOSTATIN 2] | 0.19 µg/mL (≈ 0.484 µM)
